Results on two compounds are retold here after article PMC6232145, “Intrinsic disorder in the regulatory N-terminal domain of diacylglycerol acyltransferase 1 from Brassica napus” (Scientific Reports, 2018).

The Kd is the concentration at which binding is half-saturated.

Assay [1] addresses T1, Brassica napus diacylglycerol acyltransferase 1 (BnaDGAT1, isoform BnaC.DGAT1.a) (Brassica napus, UniProt Q9M4V2).
T1 construct: gene DGAT1-4; BnaDGAT1_1-113, cytoplasmic N-terminal domain (residues 1-113), N-terminal 10 x His-tag
T1 sequence (Q9M4V2 1-113): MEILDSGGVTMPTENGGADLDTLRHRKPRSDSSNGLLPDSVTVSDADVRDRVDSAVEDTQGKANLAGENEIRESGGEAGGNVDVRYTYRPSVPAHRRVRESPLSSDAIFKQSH
Briefly: ITC ([…] stoichiometry); supported by thermal shift (about […] degree Tm increase) and CD. Type of assay: binding.

Assay [2] concerns the target T1, Brassica napus diacylglycerol acyltransferase 1 (BnaDGAT1, isoform BnaC.DGAT1.a). As to the kind of experiment: ITC ([…] stoichiometry); supported by CD. Type of assay: binding.

In the case of `CCCCCCCC/C=C\CCCCCCCC(=O)SCCNC(=O)CCNC(=O)[C@H](O)C(C)(C)COP(=O)(O)OP(=O)(O)OC[C@H]1O[C@@H](n2cnc3c(N)ncnc32)[C@H](O)[C@@H]1OP(=O)(O)O` [oleoyl-CoA], the equilibrium dissociation constant (Kd) in assay [1] worked out at 10 ± 0.01 µM.
Turning to `CC(C)(COP(=O)(O)OP(=O)(O)OC[C@H]1O[C@@H](n2cnc3c(N)ncnc32)[C@H](O)[C@@H]1OP(=O)(O)O)[C@@H](O)C(=O)NCCC(=O)NCCS` [CoA], the Kd in assay [2] was found to be 60 ± 10 µM.
